In patent publication US20050142537A1, “System and method for rapid detection of metabolic deviations of a biological sample” (priority 2003, published 2005):

System: E. coli
Assay: Impedance-based rapid detection of metabolic deviations (sensitivity testing) of a biological sample containing E. coli
Format: cell-based
From the text: There is shown in FIG. 1, system 10 for rapid detection of metabolic deviations of a biological sample of this invention. System 10 includes control chamber 12 which receives biological sample 14 via fluidic channel 15. Control chamber 12 also includes spaced electrodes 16 and 18 which are used to measure the impedance of biological sample 14 disposed in control chamber 12, as discussed in further detail below. Biological sample 14 may be blood, urine, sputum, feces, spinal fluid, food, water, a solution containing one or more microbial organisms, or any other biological sample known to those skilled in the art. The microbial organisms in biological sample 14 may include any biological cell, such as Escherichia coli, Staphylococcus aureus, Enterococcus faecalis, Streptococcus pneumoniae, Neisseria gonorrhoeae, Mycobacterium tuberculosis, Saccharomyces cerevisiae, or any other microbial organism known to those skilled in the art. […]
System 10 includes measuring and detection device 28 connected to electrodes 16 and 18 of control chamber 12 by lines 29 and 31 and electrodes 24 and 26 of target chamber 22 by lines 33 and 35. […] Measuring and detection device 28 then compares the measured second impedances to the measured first impedances to determine if biological reagent 20 has induced any metabolic deviations to biological sample 14 in target chamber 22. […]

CCn1cc(C(=O)O)c(=O)c2cc(F)c(N3CCNCC3)cc21 [Norfloxacin]
time at which sensitivity of the biological sample to the biological reagent is detected (FIG. 7 dashed line 404): about 40 minutes | sensitivity of the biological sample to the biological reagent (measured impedance response vs control sample, FIG. 7 curve 402 vs curve 400): sensitive
